Data taken from patent US20250179051A1, “PYRIMIDINLY-OXY-QUINOLINE BASED HERBICIDAL COMPOUNDS” (SYNGENTA CROP PROTECTION AG, priority 2022, published 2025).

Experiments:
Format in all cases: in vivo
Details in all cases: 250 g/ha, evaluated after 13 days, five-point scale
[1] = system: Echinochloa crus-galli (ECHCG); test: Post-emergence herbicide glasshouse test
Description: (§1) Seeds of a variety of test species are sown in standard soil in pots Amaranthus retoflexus (AMARE), Amaranthus palmeri (AMAPA), Echinochloa crus-galli (ECHCG), Ipomoea hederacea (IPOHE), Setaria faberi (SETFA). After cultivation for one day (pre-emergence) or after 8 days cultivation (post-emergence) under controlled conditions in a glasshouse (at 24/16° C., day/night; 14 hours light; 65% humidity), the plants are sprayed with an aqueous spray solution derived from the formulation of the technical active ingredient in acetone/water (50:50) solution containing 0.5% Tween 20 (polyoxyethelyene sorbitan monolaurate, CAS RN 9005-64-5). Compounds are applied at 250 g/ha unless otherwise stated. The test plants are then grown in a glasshouse under controlled conditions in a glasshouse (at 24/16° C., day/night; 14 hours light; 65% humidity) and watered twice daily. After 13 days for pre and post-emergence, the test is evaluated for the percentage damage caused to the plant. The biological activities are shown in the following table on a five-point scale (5=81-100%; 4=61-80%; 3=41-60%; 2=21-40%; 1=0-20%).

[2] = system: Setaria faberi (SETFA); test: Post-emergence herbicide glasshouse test
Description: as §1

[3] = system: Amaranthus retoflexus (AMARE); test: Post-emergence herbicide glasshouse test
Description: as §1

[4] = system: Ipomoea hederacea (IPOHE); test: Post-emergence herbicide glasshouse test
Description: as §1

[5] = system: Amaranthus palmeri (AMAPA); test: Post-emergence herbicide glasshouse test
Description: as §1

[6] = system: Echinochloa crus-galli (ECHCG); test: Pre-emergence herbicide glasshouse test
Description: as §1

[7] = system: Setaria faberi (SETFA); test: Pre-emergence herbicide glasshouse test
Description: as §1

[8] = system: Amaranthus retoflexus (AMARE); test: Pre-emergence herbicide glasshouse test
Description: as §1

[9] = system: Ipomoea hederacea (IPOHE); test: Pre-emergence herbicide glasshouse test
Description: as §1

[10] = system: Amaranthus palmeri (AMAPA); test: Pre-emergence herbicide glasshouse test
Description: as §1

Row | Structure (SMILES) | percentage damage caused to the plant, ECHCG [1] | percentage damage caused to the plant, SETFA [2] | percentage damage caused to the plant, AMARE [3] | percentage damage caused to the plant, IPOHE [4] | percentage damage caused to the plant, AMAPA [5] | percentage damage caused to the plant, ECHCG [6] | percentage damage caused to the plant, SETFA [7] | percentage damage caused to the plant, AMARE [8] | percentage damage caused to the plant, IPOHE [9] | percentage damage caused to the plant, AMAPA [10]
1 | CC(Br)c1nc(C(F)(F)F)nc2cccc(Oc3ncc(Cl)cn3)c12 (stereo not drawn) [Compound 1.001, 4-(1-bromoethyl)-5-(5-chloropyrimidin-2-yl)oxy-2-(trifluoromethyl)quinazoline] | 1 (1=0-20%) | 1 (1=0-20%) | 3 (3=41-60%) | 3 (3=41-60%) | 3 (3=41-60%) | 1 (1=0-20%) | 2 (2=21-40%) | 2 (2=21-40%) | 1 (1=0-20%) | 3 (3=41-60%)
2 | CC(=NOCC1CC1)c1nc(C(F)(F)F)nc2cccc(Oc3ncc(Cl)cn3)c12 [Compound 1.003] | 1 (1=0-20%) | 1 (1=0-20%) | 1 (1=0-20%) | 1 (1=0-20%) | 1 (1=0-20%) | 1 (1=0-20%) | 1 (1=0-20%) | 1 (1=0-20%) | 1 (1=0-20%) | 1 (1=0-20%)
3 | FC(F)(F)c1nc(CCC=NOCC2CC2)c2c(Oc3ncc(Cl)cn3)cccc2n1 [Compound 1.005] | 4 (4=61-80%) | 4 (4=61-80%) | 4 (4=61-80%) | 2 (2=21-40%) | 5 (5=81-100%) | 4 (4=61-80%) | 5 (5=81-100%) | 3 (3=41-60%) | 1 (1=0-20%) | 5 (5=81-100%)
4 | CCON=CCc1nc(C(F)(F)F)nc2cccc(Oc3ncc(Cl)cn3)c12 [Compound 1.006] | 1 (1=0-20%) | 1 (1=0-20%) | 3 (3=41-60%) | 1 (1=0-20%) | 2 (2=21-40%) | 1 (1=0-20%) | 1 (1=0-20%) | 1 (1=0-20%) | 1 (1=0-20%) | 3 (3=41-60%)
5 | CON=CCc1nc(C(F)(F)F)nc2cccc(Oc3ncc(Cl)cn3)c12 [Compound 1.007] | 1 (1=0-20%) | 1 (1=0-20%) | 2 (2=21-40%) | 1 (1=0-20%) | 2 (2=21-40%) | 1 (1=0-20%) | 1 (1=0-20%) | 1 (1=0-20%) | 1 (1=0-20%) | 1 (1=0-20%)
6 | FC(F)(F)c1nc(CC=NOCC2CC2)c2c(Oc3ncc(Cl)cn3)cccc2n1 [Compound 1.008, 2-[5-(5-chloropyrimidin-2-yl)oxy-2-(trifluoromethyl)quinazolin-4-yl]-N-(cyclopropylmethoxy) ethanimine] | 2 (2=21-40%) | 1 (1=0-20%) | 4 (4=61-80%) | 1 (1=0-20%) | 4 (4=61-80%) | 1 (1=0-20%) | 1 (1=0-20%) | 1 (1=0-20%) | 1 (1=0-20%) | 2 (2=21-40%)
7 | CCO/N=C/CCc1nc(C(F)(F)F)nc2cccc(Oc3ncc(Cl)cn3)c12 [Compound 1.009] | 5 (5=81-100%) | 5 (5=81-100%) | 5 (5=81-100%) | 5 (5=81-100%) | 5 (5=81-100%) | 5 (5=81-100%) | 5 (5=81-100%) | 5 (5=81-100%) | 1 (1=0-20%) | 5 (5=81-100%)
8 | CN(C)/C=C/c1nc(C(F)(F)F)nc2cccc(Oc3ncc(Cl)cn3)c12 [Compound 1.010, 2-[5-(5-chloropyrimidin-2-yl)oxy-2-(trifluoromethyl)quinazolin-4-yl]-N,N-dimethyl-ethenamine] | 1 (1=0-20%) | 1 (1=0-20%) | 3 (3=41-60%) | 1 (1=0-20%) | 3 (3=41-60%) | 1 (1=0-20%) | 1 (1=0-20%) | 2 (2=21-40%) | 1 (1=0-20%) | 2 (2=21-40%)
9 | Fc1ccc(-c2nc(C(F)(F)F)nc3cccc(Oc4ncc(Cl)cc4F)c23)cc1 [Compound 1.040] | 1 (1=0-20%) | 1 (1=0-20%) | 2 (2=21-40%) | 2 (2=21-40%) | – | 1 (1=0-20%) | 1 (1=0-20%) | 1 (1=0-20%) | 1 (1=0-20%) | –
10 | Fc1ccc(-c2nc(C(F)(F)F)nc3cccc(Oc4ncc(Cl)cn4)c23)cc1 [Compound 1.042] | 1 (1=0-20%) | 1 (1=0-20%) | 3 (3=41-60%) | 3 (3=41-60%) | – | 1 (1=0-20%) | 1 (1=0-20%) | 1 (1=0-20%) | 1 (1=0-20%) | –
11 | C=CCCc1nc(C(F)(F)F)nc2cccc(Oc3ncc(Cl)cn3)c12 [Compound 1.043, 4-but-3-enyl-5-(5-chloropyrimidin-2-yl)oxy-2-(trifluoromethyl)quinazoline] | 4 (4=61-80%) | 4 (4=61-80%) | 5 (5=81-100%) | 3 (3=41-60%) | – | 5 (5=81-100%) | 5 (5=81-100%) | 4 (4=61-80%) | 1 (1=0-20%) | –
12 | FC(F)(F)c1nc(CCC2CCOCC2)c2c(Oc3ncc(Cl)cn3)cccc2n1 [Compound 1.044] | 5 (5=81-100%) | 5 (5=81-100%) | 5 (5=81-100%) | 4 (4=61-80%) | – | 5 (5=81-100%) | 5 (5=81-100%) | 5 (5=81-100%) | 5 (5=81-100%) | –
13 | N#CCCc1nc(C(F)(F)F)nc2cccc(Oc3ncc(Cl)cn3)c12 [Compound 1.046, 3-[5-(5-chloropyrimidin-2-yl)oxy-2-(trifluoromethyl)quinazolin-4-yl]propanenitrile] | 2 (2=21-40%) | 2 (2=21-40%) | – | 4 (4=61-80%) | 5 (5=81-100%) | 5 (5=81-100%) | 5 (5=81-100%) | 5 (5=81-100%) | 5 (5=81-100%) | 5 (5=81-100%)
14 | Fc1cnc(Oc2cccc3nc(C(F)(F)F)nc(CCC4CC4)c23)nc1 [Compound 1.064] | 4 (4=61-80%) | – | 5 (5=81-100%) | 4 (4=61-80%) | 4 (4=61-80%) | 4 (4=61-80%) | – | 5 (5=81-100%) | 5 (5=81-100%) | 5 (5=81-100%)
